In ChEMBL document CHEMBL5380795, “Design, Synthesis, and Bioactivity Investigation of Cyclic Lipopeptide Antibiotics Containing Eight to Nine Amino Acids” (J Med Chem, 2023):
Converted amounts (≈) assume the structure as drawn. Bridge positions count the residues as written; N and C are the ends. Square brackets hold non-standard residues; d marks the D form. Peptide text beside a SMILES is read from it. * marks the point of attachment. X1 = CC[C@H](C)CCCCC(=O)*; Dab = NCC[C@H](N)C(=O)O

Experiments:
[1] = tested on: Staphylococcus epidermidis; experiment: Antibacterial activity against methicillin resistant Staphylococcus epidermidis clinical isolate 19-6 assessed as inhibition of bacterial growth incubated for 18 to 24 hrs by broth microdilution method; format: functional; details: time 18-24 hrs
Escherichia coli [2] = experiment: Antibacterial activity against Escherichia coli NCTC 13353 assessed as inhibition of bacterial growth incubated for 18 to 24 hrs by broth microdilution method; format: functional; details: time 18-24 hrs
Klebsiella pneumoniae [3] = experiment: Antibacterial activity against carbapenem resistant Klebsiella pneumoniae clinical isolate 19-17 assessed as inhibition of bacterial growth incubated for 18 to 24 hrs by broth microdilution method; format: functional; details: time 18-24 hrs
Candida albicans = experiment: Antifungal activity against Candida albicans; format: functional
Acinetobacter baumannii [4] = experiment: Antibacterial activity against carbapenem resistant Acinetobacter baumannii clinical isolate 19-8 assessed as inhibition of bacterial growth incubated for 18 to 24 hrs by broth microdilution method; format: functional; details: time 18-24 hrs
Acinetobacter baumannii [5] = experiment: Antibacterial activity against oxacillinase-27 producing Acinetobacter baumannii NCTC 13304 assessed as inhibition of bacterial growth incubated for 18 to 24 hrs by broth microdilution method; format: functional; details: time 18-24 hrs
[6] = tested on: Staphylococcus epidermidis; experiment: Antibacterial activity against Staphylococcus epidermidis; format: functional
Pseudomonas aeruginosa [7] = experiment: Antibacterial activity against carbapenem resistant Pseudomonas aeruginosa clinical isolate 19-3 assessed as inhibition of bacterial growth incubated for 18 to 24 hrs by broth microdilution method; format: functional; details: time 18-24 hrs
Escherichia coli [8] = experiment: Antibacterial activity against Escherichia coli ATCC BAA-2523 assessed as inhibition of bacterial growth incubated for 18 to 24 hrs by broth microdilution method; format: functional; details: time 18-24 hrs
Staphylococcus aureus [9] = experiment: Antibacterial activity against methicillin resistant Staphylococcus aureus ATCC 33591 assessed as inhibition of bacterial growth incubated for 18 to 24 hrs by broth microdilution method; format: functional; details: time 18-24 hrs
Klebsiella pneumoniae [10] = experiment: Antibacterial activity against Klebsiella pneumoniae; format: functional
[11] = Selectivity index, ratio of IC50 for cytotoxicity against human HK-2 cells to MIC for antibacterial activity against Escherichia coli ATCC BAA-2523; format: toxicity, cell-based
[12] = Cytotoxicity against human HK-2 cells assessed as inhibition of cell growth incubated for 72 hrs by CCK-8 assay; format: toxicity, cell-based
Pseudomonas aeruginosa [13] = experiment: Antibacterial activity against Pseudomonas aeruginosa ATCC 27853 assessed as inhibition of bacterial growth incubated for 18 to 24 hrs by broth microdilution method; format: functional; details: time 18-24 hrs
Pseudomonas aeruginosa [14] = experiment: Antibacterial activity against carbapenem resistant Pseudomonas aeruginosa clinical isolate 17-1 assessed as inhibition of bacterial growth incubated for 18 to 24 hrs by broth microdilution method; format: functional; details: time 18-24 hrs
Acinetobacter baumannii [15] = experiment: Antibacterial activity against Acinetobacter baumannii; format: functional
Klebsiella pneumoniae [16] = experiment: Antibacterial activity against carbapenem resistant Klebsiella pneumoniae clinical isolate 19-15 assessed as inhibition of bacterial growth incubated for 18 to 24 hrs by broth microdilution method; format: functional; details: time 18-24 hrs
Staphylococcus aureus [17] = experiment: Antibacterial activity against Staphylococcus aureus ATCC 29213 assessed as inhibition of bacterial growth incubated for 18 to 24 hrs by broth microdilution method; format: functional; details: time 18-24 hrs
[18] = Plasma protein binding in human at 2 uM incubated for 6 hrs by equilibrium dialysis based LC-MS/MS analysis; format: ADME, cell-free; details: read-out: PPB (converted)
Pseudomonas aeruginosa [19] = experiment: Antibacterial activity against Pseudomonas aeruginosa clinical isolate 19-1 assessed as inhibition of bacterial growth incubated for 18 to 24 hrs by broth microdilution method; format: functional; details: time 18-24 hrs
[20] = tested on: Staphylococcus epidermidis; experiment: Antibacterial activity against methicillin resistant Staphylococcus epidermidis clinical isolate 19-5 assessed as inhibition of bacterial growth incubated for 18 to 24 hrs by broth microdilution method; format: functional; details: time 18-24 hrs
Pseudomonas aeruginosa [21] = experiment: Antibacterial activity against Pseudomonas aeruginosa; format: functional
Escherichia coli [22] = experiment: Antibacterial activity against Escherichia coli clinical isolate 19-2 assessed as inhibition of bacterial growth incubated for 18 to 24 hrs by broth microdilution method; format: functional; details: time 18-24 hrs
Klebsiella pneumoniae [23] = experiment: Antibacterial activity against KPC producing Klebsiella pneumoniae ATCC BAA-1705 assessed as inhibition of bacterial growth incubated for 18 to 24 hrs by broth microdilution method; format: functional; details: time 18-24 hrs
Escherichia coli [24] = experiment: Antibacterial activity against KPC producing Escherichia coli ATCC BAA-2340 assessed as inhibition of bacterial growth incubated for 18 to 24 hrs by broth microdilution method; format: functional; details: time 18-24 hrs
Staphylococcus aureus [25] = experiment: Antibacterial activity against Staphylococcus aureus; format: functional
Escherichia coli [26] = experiment: Antibacterial activity against Escherichia coli; format: functional
Escherichia coli [27] = experiment: Antibacterial activity against Escherichia coli ATCC 25922 assessed as inhibition of bacterial growth incubated for 18 to 24 hrs by broth microdilution method; format: functional; details: time 18-24 hrs

SMILES | MIC [1] [µg/mL] | MIC (Escherichia coli [2]) [µg/mL] | MIC (Klebsiella pneumoniae [3]) [µg/mL] | MIC (Acinetobacter baumannii [4]) [µg/mL] | MIC (Acinetobacter baumannii [5]) [µg/mL] | MIC (Pseudomonas aeruginosa [7]) [µg/mL] | MIC (Escherichia coli [8]) [µg/mL] | MIC (Staphylococcus aureus [9]) [µg/mL] | MIC (Klebsiella pneumoniae [10]) [µg/mL] | MIC (Pseudomonas aeruginosa [13]) [µg/mL] | MIC (Pseudomonas aeruginosa [14]) [µg/mL] | MIC (Acinetobacter baumannii [15]) [µg/mL] | MIC (Klebsiella pneumoniae [16]) [µg/mL] | MIC (Staphylococcus aureus [17]) [µg/mL] | MIC (Pseudomonas aeruginosa [19]) [µg/mL] | MIC [20] [µg/mL] | MIC (Pseudomonas aeruginosa [21]) [µg/mL] | MIC (Escherichia coli [22]) [µg/mL] | MIC (Klebsiella pneumoniae [23]) [µg/mL] | MIC (Escherichia coli [26]) [µg/mL] | further results
CCCCCCC[C@@H](O)CC(=O)N[C@H](CCN)C(=O)N[C@H]1CCNC(=O)[C@H](CC(C)C)NC(=O)[C@H](CCN)NC(=O)[C@H](CCN)NC(=O)[C@H](CC(C)C)NC(=O)[C@@H](CC(C)C)NC(=O)[C@H](CCN)NC1=O | 16 (≈ 15.8 µM) | 16 (≈ 15.8 µM) | 16 (≈ 15.8 µM) | 4 (≈ 3.96 µM) | 8 (≈ 7.92 µM) | 4 (≈ 3.96 µM) | 16 (≈ 15.8 µM) | > 64 | 0.78 (≈ 0.772 µM) | 1 (≈ 0.99 µM) | 2 (≈ 1.98 µM) | 4 (≈ 3.96 µM) | 16 (≈ 15.8 µM) | > 64 | 2 (≈ 1.98 µM) | 2 (≈ 1.98 µM) | 0.4 (≈ 0.396 µM) | 16 (≈ 15.8 µM) | 16 (≈ 15.8 µM) | 0.1 (≈ 0.099 µM) | MIC (Candida albicans): 4.7 µg/mL (≈ 4.65 µM); MIC [6]: 0.6 µg/mL (≈ 0.594 µM); selectivity ratio [11]: 3.8; IC50 at 72 h [12]: 60.7 µg/mL (≈ 60.1 µM); fraction unbound at 6 h, 2 µM [18]: 0.0216; MIC (Escherichia coli [24]): 8 µg/mL (≈ 7.92 µM); MIC (Staphylococcus aureus [25]): 3.1 µg/mL (≈ 3.07 µM)
CCCCCCC[C@@H](O)CC(=O)N[C@H](CCN)C(=O)N[C@H]1CCNC(=O)[C@H](CC(C)C)NC(=O)[C@H](CCN)NC(=O)[C@H](CCN)NC(=O)[C@H](Cc2ccccc2)NC(=O)[C@@H](CC(C)C)NC(=O)[C@H](CCN)NC1=O | 8 (≈ 7.66 µM) | 16 (≈ 15.3 µM) | 16 (≈ 15.3 µM) | 4 (≈ 3.83 µM) | 8 (≈ 7.66 µM) | 4 (≈ 3.83 µM) | 8 (≈ 7.66 µM) | 32 (≈ 30.6 µM) | 0.78 (≈ 0.747 µM) | 2 (≈ 1.92 µM) | 2 (≈ 1.92 µM) | 4 (≈ 3.83 µM) | 16 (≈ 15.3 µM) | 32 (≈ 30.6 µM) | 4 (≈ 3.83 µM) | 2 (≈ 1.92 µM) | 0.4 (≈ 0.383 µM) | 16 (≈ 15.3 µM) | 8 (≈ 7.66 µM) | 0.1 (≈ 0.0958 µM) | MIC (Candida albicans): 4.7 µg/mL (≈ 4.5 µM); MIC [6]: 0.6 µg/mL (≈ 0.575 µM); selectivity ratio [11]: 2; IC50 at 72 h [12]: 16.1 µg/mL (≈ 15.4 µM); MIC (Escherichia coli [24]): 8 µg/mL (≈ 7.66 µM); MIC (Staphylococcus aureus [25]): 3.1 µg/mL (≈ 2.97 µM)
CC[C@H](C)CCCCC(=O)N[C@@H](CCN)C(=O)N[C@H](C(=O)N[C@@H](CCN)C(=O)N[C@H]1CCNC(=O)[C@H]([C@@H](C)O)NC(=O)[C@H](CCN)NC(=O)[C@H](CCN)NC(=O)[C@H](CC(C)C)NC(=O)[C@@H](Cc2ccccc2)NC(=O)[C@H](CCN)NC1=O)[C@@H](C)O (X1-[Dab]T[Dab][Dab][Dab][dF]L[Dab][Dab]T; lactam 4-C) | 16 (≈ 13.3 µM) | 0.5 (≈ 0.415 µM) | 0.25 (≈ 0.208 µM) | ≤ 0.06 | ≤ 0.06 | 0.125 (≈ 0.104 µM) | < 0.06 | > 64 | 1 (≈ 0.831 µM) | 0.5 (≈ 0.415 µM) | 0.25 (≈ 0.208 µM) | 1 (≈ 0.831 µM) | 0.125 (≈ 0.104 µM) | > 64 | 0.25 (≈ 0.208 µM) | 4 (≈ 3.32 µM) | 0.2 (≈ 0.166 µM) | ≤ 0.06 | ≤ 0.06 | 0.05 (≈ 0.0415 µM) | MIC (Escherichia coli [27]): 0.25 µg/mL (≈ 0.208 µM); MIC (Escherichia coli [24]): ≤ 0.06 µg/mL
CC[C@H](C)CCCCC(=O)N[C@@H](CCN)C(=O)N[C@H](C(=O)N[C@@H](CCN)C(=O)N[C@H]1CCNC(=O)[C@H]([C@@H](C)O)NC(=O)[C@H](CCN)NC(=O)[C@H](CCN)NC(=O)[C@H](CC(C)C)NC(=O)[C@@H](CC(C)C)NC(=O)[C@H](CCN)NC1=O)[C@@H](C)O (X1-[Dab]T[Dab][Dab][Dab][dL]L[Dab][Dab]T; lactam 4-C) | – | – | – | – | – | – | – | – | 1 (≈ 0.855 µM) | – | – | 1 (≈ 0.855 µM) | – | – | – | – | 0.2 (≈ 0.171 µM) | – | – | 0.05 (≈ 0.0428 µM) | –
